Results from publication PMC10046369, “Low-Affinity/High-Selectivity Dopamine Transport Inhibition Sufficient to Rescue Cognitive Functions in the Aging Rat” (Biomolecules, 2023).

Experiments:
Assay in all cases: biochemical
Design in all cases: KINOMEscan competition binding panel, per cent of control
Settings in all cases: read-out: %Ctrl @ 2800nM
[1] = target: T1, RPS6KA4(Kin.Dom.1-N-terminal) (Homo sapiens, UniProt O75676)
T1 construct: Kin.Dom.1-N-terminal
Procedure, shortened: (§1)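 Values are expressed as percent of control, calculated as ((test − positive control)/(negative control − positive control)) × 100, so lower numbers mean stronger hits. Binding was measured by KINOMEscan competition assay in a 450-kinase human panel including disease mutants, using the contractor's validated protocol.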

[2] = target: PHKG2 (Homo sapiens, UniProt P15735)
Chain of PHKG2 (P15735 whole entry): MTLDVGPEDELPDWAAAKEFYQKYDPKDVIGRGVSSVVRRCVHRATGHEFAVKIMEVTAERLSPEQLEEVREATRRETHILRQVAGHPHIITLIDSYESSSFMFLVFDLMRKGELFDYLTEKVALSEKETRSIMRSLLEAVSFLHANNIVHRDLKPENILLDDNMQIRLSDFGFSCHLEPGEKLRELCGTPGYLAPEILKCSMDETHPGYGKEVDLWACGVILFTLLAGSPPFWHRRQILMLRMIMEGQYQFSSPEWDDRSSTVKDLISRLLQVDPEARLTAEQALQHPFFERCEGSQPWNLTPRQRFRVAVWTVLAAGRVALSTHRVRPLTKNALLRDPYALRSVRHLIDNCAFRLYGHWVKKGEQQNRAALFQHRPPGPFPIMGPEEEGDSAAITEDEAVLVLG
Procedure, shortened: as §1

[3] = target: T2, ABL1(E255K)-phosphorylated (Homo sapiens, UniProt P00519, E255K)
T2 construct: phosphorylated
Procedure, shortened: as §1

[4] = target: CIT (Homo sapiens, UniProt O14578)
Procedure, shortened: as §1

[5] = target: KIT(V559D,V654A) (Homo sapiens, UniProt P10721, V559D/V654A)
Procedure, shortened: as §1

[6] = target: T3, MST4 (Homo sapiens, UniProt Q9P289)
T3 construct: gene STK26
T3 sequence (Q9P289 whole entry): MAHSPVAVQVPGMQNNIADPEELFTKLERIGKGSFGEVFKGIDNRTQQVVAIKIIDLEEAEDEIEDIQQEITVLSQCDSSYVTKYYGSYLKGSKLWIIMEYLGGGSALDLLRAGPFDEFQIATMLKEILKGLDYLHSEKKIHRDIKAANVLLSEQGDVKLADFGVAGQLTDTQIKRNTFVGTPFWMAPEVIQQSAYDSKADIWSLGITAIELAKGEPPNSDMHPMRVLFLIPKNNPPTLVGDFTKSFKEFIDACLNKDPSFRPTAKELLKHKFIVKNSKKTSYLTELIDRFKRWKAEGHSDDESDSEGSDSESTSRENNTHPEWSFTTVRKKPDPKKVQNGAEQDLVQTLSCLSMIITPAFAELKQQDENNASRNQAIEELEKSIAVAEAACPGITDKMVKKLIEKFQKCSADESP
Procedure, shortened: as §1

[7] = target: MERTK (Homo sapiens, UniProt Q12866)
Procedure, shortened: as §1

[8] = target: T4, NIK (Homo sapiens, UniProt Q99558)
T4 construct: gene MAP3K14
Procedure, shortened: as §1

[9] = target: T5, PRKR (Homo sapiens, UniProt P19525)
T5 construct: gene EIF2AK2
Procedure, shortened: as §1

[10] = target: CAMKK1 (Homo sapiens, UniProt Q8N5S9)
Procedure, shortened: as §1

[11] = target: T6, MINK (Homo sapiens, UniProt Q8N4C8)
T6 construct: gene MINK1
T6 sequence (Q8N4C8 whole entry): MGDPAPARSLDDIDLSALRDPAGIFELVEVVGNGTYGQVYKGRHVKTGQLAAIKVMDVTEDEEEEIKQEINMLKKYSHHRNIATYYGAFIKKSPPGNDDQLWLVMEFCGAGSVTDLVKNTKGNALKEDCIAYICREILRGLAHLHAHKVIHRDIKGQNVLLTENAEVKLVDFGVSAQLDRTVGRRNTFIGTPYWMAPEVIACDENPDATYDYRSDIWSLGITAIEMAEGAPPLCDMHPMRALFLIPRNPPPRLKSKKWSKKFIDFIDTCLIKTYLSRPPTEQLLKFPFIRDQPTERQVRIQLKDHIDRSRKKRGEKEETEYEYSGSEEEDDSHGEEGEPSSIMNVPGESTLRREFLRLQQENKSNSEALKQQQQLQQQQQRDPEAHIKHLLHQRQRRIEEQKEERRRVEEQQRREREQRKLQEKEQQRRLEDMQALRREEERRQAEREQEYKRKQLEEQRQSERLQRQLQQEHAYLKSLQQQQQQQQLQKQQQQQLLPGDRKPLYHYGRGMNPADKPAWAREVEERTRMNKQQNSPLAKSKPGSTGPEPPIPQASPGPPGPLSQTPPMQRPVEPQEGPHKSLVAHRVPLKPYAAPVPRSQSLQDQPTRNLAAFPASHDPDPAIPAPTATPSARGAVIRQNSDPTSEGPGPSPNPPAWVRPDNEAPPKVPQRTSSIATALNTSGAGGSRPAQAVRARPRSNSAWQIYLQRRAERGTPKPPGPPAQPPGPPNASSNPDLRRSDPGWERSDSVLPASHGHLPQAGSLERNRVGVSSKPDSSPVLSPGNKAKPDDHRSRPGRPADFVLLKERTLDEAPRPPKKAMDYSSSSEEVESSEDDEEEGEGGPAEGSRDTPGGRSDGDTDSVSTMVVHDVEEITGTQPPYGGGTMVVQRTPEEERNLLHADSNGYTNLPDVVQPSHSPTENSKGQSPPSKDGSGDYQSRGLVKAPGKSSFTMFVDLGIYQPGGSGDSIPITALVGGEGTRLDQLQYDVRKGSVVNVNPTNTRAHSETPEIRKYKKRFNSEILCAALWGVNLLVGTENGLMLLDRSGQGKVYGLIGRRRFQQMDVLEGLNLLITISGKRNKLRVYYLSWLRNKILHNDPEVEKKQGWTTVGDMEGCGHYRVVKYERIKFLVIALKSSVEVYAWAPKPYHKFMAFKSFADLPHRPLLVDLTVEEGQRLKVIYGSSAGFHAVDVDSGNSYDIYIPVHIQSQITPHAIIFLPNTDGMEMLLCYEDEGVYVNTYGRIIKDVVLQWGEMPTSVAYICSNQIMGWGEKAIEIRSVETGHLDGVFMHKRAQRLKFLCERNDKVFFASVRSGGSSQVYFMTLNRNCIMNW
Procedure, shortened: as §1

[12] = target: EGFR(L858R) (Homo sapiens, UniProt P00533, L858R)
Chain of EGFR(L858R) (P00533 whole entry L858R): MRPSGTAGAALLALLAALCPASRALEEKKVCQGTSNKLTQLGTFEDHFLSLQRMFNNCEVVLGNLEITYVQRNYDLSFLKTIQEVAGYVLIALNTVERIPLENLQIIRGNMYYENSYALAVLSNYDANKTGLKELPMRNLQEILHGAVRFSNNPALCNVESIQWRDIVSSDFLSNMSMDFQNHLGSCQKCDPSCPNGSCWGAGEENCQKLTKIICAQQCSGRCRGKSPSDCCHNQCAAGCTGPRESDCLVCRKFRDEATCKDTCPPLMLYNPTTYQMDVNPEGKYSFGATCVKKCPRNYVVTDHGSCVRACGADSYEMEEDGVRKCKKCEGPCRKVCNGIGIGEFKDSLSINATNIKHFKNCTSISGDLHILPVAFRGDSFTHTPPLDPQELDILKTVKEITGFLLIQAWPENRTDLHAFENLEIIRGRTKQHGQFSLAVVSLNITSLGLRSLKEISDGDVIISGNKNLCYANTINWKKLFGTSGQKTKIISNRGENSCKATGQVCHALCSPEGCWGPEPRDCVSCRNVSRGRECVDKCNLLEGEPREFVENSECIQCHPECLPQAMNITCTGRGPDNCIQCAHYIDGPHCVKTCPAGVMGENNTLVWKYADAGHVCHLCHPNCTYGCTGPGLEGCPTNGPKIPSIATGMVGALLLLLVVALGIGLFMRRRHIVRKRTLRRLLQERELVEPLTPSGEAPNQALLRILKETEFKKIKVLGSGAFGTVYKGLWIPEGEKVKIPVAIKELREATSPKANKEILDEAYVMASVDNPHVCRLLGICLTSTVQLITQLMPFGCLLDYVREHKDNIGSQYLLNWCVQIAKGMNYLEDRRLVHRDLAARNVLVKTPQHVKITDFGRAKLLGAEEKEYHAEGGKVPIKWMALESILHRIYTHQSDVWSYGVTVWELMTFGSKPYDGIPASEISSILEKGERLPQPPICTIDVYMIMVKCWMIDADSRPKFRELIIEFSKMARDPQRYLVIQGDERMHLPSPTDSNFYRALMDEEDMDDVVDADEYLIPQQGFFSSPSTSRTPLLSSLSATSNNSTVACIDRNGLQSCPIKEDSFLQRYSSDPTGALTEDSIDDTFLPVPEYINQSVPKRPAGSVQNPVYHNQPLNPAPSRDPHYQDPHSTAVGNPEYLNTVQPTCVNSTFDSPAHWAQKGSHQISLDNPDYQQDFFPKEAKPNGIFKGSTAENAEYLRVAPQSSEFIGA
Procedure, shortened: as §1

[13] = target: T7, MEK5 (Homo sapiens, UniProt Q13163)
T7 construct: gene MAP2K5
Procedure, shortened: as §1

[14] = target: T8, TIE2 (Homo sapiens, UniProt Q02763)
T8 construct: gene TEK
Procedure, shortened: as §1

[15] = target: MKNK2 (Homo sapiens, UniProt Q9HBH9)
Procedure, shortened: as §1

[16] = target: PDPK1 (Homo sapiens, UniProt O15530)
Procedure, shortened: as §1

[17] = target: MAP4K5 (Homo sapiens, UniProt Q9Y4K4)
Procedure, shortened: as §1

[18] = target: RIOK3 (Homo sapiens, UniProt O14730)
Procedure, shortened: as §1

[19] = target: T9, JNK2 (Homo sapiens, UniProt P45984)
T9 construct: gene MAPK9
Procedure, shortened: as §1

[20] = target: SBK1 (Homo sapiens, UniProt Q52WX2)
Chain of SBK1 (Q52WX2 whole entry): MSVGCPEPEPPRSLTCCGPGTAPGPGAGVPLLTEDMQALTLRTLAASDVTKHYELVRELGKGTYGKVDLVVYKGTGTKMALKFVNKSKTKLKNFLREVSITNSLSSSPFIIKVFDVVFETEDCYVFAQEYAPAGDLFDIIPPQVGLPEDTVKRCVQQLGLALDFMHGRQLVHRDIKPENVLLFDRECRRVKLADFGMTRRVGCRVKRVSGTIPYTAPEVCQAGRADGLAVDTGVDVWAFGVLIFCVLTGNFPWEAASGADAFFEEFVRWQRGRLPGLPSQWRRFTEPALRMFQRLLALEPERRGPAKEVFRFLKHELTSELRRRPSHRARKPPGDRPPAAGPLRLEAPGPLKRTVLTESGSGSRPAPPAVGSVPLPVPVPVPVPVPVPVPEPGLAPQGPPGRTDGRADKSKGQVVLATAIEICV
Procedure, shortened: as §1

[21] = target: T10, DMPK2 (Homo sapiens, UniProt Q6DT37)
T10 construct: gene CDC42BPG
Procedure, shortened: as §1

[22] = target: PIK3CA(H1047Y) (Homo sapiens, UniProt P42336, H1047Y)
Chain of PIK3CA(H1047Y) (P42336 whole entry H1047Y): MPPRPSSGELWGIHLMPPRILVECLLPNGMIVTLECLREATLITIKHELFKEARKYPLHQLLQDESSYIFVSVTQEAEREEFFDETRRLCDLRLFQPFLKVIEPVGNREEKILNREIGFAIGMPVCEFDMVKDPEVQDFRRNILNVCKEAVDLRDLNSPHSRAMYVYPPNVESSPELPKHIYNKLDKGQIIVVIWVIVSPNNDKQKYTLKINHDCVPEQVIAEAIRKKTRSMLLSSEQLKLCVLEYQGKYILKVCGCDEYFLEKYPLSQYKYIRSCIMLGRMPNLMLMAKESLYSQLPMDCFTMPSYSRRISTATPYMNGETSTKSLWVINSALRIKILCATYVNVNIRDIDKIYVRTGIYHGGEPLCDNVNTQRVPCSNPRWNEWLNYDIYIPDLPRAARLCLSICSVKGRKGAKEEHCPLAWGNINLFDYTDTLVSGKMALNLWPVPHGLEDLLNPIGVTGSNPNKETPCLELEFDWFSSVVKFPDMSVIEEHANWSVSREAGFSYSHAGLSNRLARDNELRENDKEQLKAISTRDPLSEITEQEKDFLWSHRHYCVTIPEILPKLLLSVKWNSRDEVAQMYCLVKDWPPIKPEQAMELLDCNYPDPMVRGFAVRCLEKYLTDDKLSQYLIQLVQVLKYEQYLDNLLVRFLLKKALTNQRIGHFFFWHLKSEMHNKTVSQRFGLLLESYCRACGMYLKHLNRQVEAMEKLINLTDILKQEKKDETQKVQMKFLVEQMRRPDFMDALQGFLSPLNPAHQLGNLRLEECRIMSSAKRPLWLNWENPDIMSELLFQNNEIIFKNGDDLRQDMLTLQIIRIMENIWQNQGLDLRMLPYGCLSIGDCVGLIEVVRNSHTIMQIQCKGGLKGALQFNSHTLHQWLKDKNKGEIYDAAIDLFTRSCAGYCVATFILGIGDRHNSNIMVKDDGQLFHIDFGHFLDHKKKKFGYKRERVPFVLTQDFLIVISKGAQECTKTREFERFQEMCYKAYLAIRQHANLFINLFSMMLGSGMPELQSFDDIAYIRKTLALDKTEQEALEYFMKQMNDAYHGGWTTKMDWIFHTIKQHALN
Procedure, shortened: as §1

[23] = target: T11, AMPK-alpha1 (Homo sapiens, UniProt Q13131)
T11 construct: gene PRKAA1
Procedure, shortened: as §1

[24] = target: DYRK1A (Homo sapiens, UniProt Q13627)
Procedure, shortened: as §1

[25] = target: DAPK1 (Homo sapiens, UniProt P53355)
Procedure, shortened: as §1

[26] = target: T12, IKK-epsilon (Homo sapiens, UniProt Q14164)
T12 construct: gene IKBKE
Procedure, shortened: as §1

`[O-][S@@+](Cc1cncs1)C(c1ccccc1)c1ccccc1` [S-CE-123, (S)-5-((Benzhydrylsulfinyl)Methyl)Thiazole] was tested, and the remaining binding at 2.8 µM [1] was 100%, the remaining binding at 2.8 µM [2] was 96% and the remaining binding at 2.8 µM [3] was 73%. For the same compound, the remaining binding at 2.8 µM [4] was 74%, the remaining binding at 2.8 µM [5] was 100% and the remaining binding at 2.8 µM [6] was 100%. For the same compound, the remaining binding at 2.8 µM [7] was 63%, the remaining binding at 2.8 µM [8] was 100% and the remaining binding at 2.8 µM [9] was 93%. It also gave a remaining binding at 2.8 µM [10] of 95%, a remaining binding at 2.8 µM [11] of 87% and a remaining binding at 2.8 µM [12] of 92%. It also gave a remaining binding at 2.8 µM [13] of 98%, a remaining binding at 2.8 µM [14] of 100% and a remaining binding at 2.8 µM [15] of 69%. For the same compound, the remaining binding at 2.8 µM [16] was 95%, the remaining binding at 2.8 µM [17] was 95% and the remaining binding at 2.8 µM [18] was 97%. The remaining binding at 2.8 µM [19] was 90%, the remaining binding at 2.8 µM [20] was 100% and the remaining binding at 2.8 µM [21] was 88%. It also gave a remaining binding at 2.8 µM [22] of 100%, a remaining binding at 2.8 µM [23] of 92% and a remaining binding at 2.8 µM [24] of 96%. It also gave a remaining binding at 2.8 µM [25] of 91% and a remaining binding at 2.8 µM [26] of 98%.
